According to US7109231B2, “Cyclohept[b]indole derivatives” (Eli Lilly and Company, priority 2001, dated 2006):

Biological target: T1, recombinant human secreted phospholipase A2 (Homo sapiens, UniProt P14555)
T1 sequence (P14555 21-144): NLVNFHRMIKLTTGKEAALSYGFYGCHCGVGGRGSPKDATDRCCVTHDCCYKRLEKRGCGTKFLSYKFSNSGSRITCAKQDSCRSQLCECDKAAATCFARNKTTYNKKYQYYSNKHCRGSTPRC
Assay: chromogenic assay for inhibitors of recombinant human secreted phospholipase A2
Assay type: biochemical
Settings: diheptanoyl thio-PC substrate, pH 7.5, 40° C. for 30 minutes, absorbance at 405 nanometers, titrated in triplicate
Excerpt: The following chromogenic assay procedure was used to identify and evaluate inhibitors of recombinant human secreted phospholipase A2. The assay described herein has been adapted for high volume screening using 96 well microtiter plates. A general description of this assay method is found in the article, “Analysis of Human Synovial Fluid Phospholipase A2 on Short Chain Phosphatidylcholine-Mixed Micelles: Development of a Spectrophotometric Assay Suitable for a Microtiterplate Reader”, by Laure J. Reynolds, Lori L. Hughes, and Edward A Dennis, Analytical Biochemistry, 204, pp. 190–197, 1992 (the disclosure of which is incorporated herein by reference): […]
A measured volume of racemic dipheptanoyl thio PC supplied in chloroform at a concentration of 100 mg/ml is taken to dryness and redissolved in 10 millimolar TRITON X-100™ nonionic detergent aqueous solution. […]
• 1. […] Read absorbance of wells at 405 nanometers with an automatic plate reader.
Tests were done in triplicate. […] Compounds initially found to be active were re-assayed to confirm their activity and, if sufficiently active, IC50 values were determined. […] In all cases, % inhibition measured at 405 nanometers generated by enzyme reactions containing inhibitors relative to the uninhibited control reactions was determined. […]

## NC(=O)C1CCCCc2c1c1c(OCC(=O)O)cccc1n2Cc1ccccc1 (stereo not shown) [Example 1, (5-Benzyl-10-carbamoyl-5,6,7,8,9,10-hexahydro-cyclohepta[b]indol-1-yloxy)acetic Acid]
  IC50: 0.248 µM
